Results on 10 compounds are retold here after patent US8592431B2, “Fused ring compound and use thereof” (Takeda Pharmaceutical Company Limited, priority 2009, dated 2013).

human PPARγ, sequence (P37231 29-505): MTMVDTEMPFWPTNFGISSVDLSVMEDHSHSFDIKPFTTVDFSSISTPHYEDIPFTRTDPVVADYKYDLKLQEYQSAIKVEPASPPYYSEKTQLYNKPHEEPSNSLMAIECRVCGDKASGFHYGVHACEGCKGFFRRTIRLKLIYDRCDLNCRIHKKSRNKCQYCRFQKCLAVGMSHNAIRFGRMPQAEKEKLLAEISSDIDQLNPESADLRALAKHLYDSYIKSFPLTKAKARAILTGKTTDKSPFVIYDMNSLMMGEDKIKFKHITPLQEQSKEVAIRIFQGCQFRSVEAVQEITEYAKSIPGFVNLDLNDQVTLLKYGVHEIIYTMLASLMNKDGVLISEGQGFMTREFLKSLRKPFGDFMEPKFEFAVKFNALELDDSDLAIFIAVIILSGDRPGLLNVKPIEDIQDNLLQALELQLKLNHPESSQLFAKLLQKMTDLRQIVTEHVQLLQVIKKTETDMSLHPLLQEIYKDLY
human PPARγ, sequence (P19793 whole entry partner): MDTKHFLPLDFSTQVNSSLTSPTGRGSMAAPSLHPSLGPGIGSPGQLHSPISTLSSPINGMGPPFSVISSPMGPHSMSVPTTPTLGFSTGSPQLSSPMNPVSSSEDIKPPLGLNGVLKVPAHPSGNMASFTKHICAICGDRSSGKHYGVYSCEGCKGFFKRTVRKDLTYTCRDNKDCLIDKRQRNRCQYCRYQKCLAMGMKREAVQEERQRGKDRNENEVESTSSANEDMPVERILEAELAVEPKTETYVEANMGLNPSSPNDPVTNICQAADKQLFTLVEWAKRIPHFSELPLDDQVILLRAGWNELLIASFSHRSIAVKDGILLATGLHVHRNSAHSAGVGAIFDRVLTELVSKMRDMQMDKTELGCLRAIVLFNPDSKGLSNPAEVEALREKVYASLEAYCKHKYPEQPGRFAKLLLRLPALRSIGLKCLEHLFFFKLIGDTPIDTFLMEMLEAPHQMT
human AT1 receptor, sequence (P30556 whole entry): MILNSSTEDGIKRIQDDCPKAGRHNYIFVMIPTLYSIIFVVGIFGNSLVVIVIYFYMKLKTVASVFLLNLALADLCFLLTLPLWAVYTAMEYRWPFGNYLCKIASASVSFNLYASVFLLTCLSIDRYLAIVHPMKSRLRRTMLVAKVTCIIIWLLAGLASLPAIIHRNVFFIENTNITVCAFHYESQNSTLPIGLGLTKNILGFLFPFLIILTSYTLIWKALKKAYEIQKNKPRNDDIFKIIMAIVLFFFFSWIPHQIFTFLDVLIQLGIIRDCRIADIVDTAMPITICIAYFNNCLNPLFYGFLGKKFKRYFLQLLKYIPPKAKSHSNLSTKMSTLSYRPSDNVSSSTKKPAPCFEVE

The first test has as its target human AT1 receptor (Homo sapiens (Human), UniProt P30556). Kind of test: AT1 receptor antagonistic activity: [125I]-angiotensin II binding assay with AT1 membrane. The following applies: 22.5 pM [125I]-angiotensin II, human AT1 receptor-expressing CHO-K1 membrane, 1 hr room temperature. How it is done: Evaluation of AT1 Receptor Antagonistic Activity
(1) Preparation of Human AT1 Receptor-Expressing CHO-K1 Cellular Membrane Fraction
CHO-K1 cell (RIKEN, Japan) capable of stable expression of human AT1 receptor was cultured, recovered, suspended in homogenize buffer (10 mM NaHCO3 (pH 7.4), 5 mM EDTA, 1× Complete EDTA free) [manufactured by Roche, Switzerland], and homogenized. The homogenate was centrifuged at low-speed (900×g, 10 min, 4° C.), and the supernatant was recovered and ultracentrifuged (90,000×g, 1 hr, 4° C.). The supernatant was discarded, and the pellets were resuspended in suspension buffer (50 mM Tris (pH 7.4), 1 mM EDTA, 1× Complete EDTA free).
(2) Evaluation of AT1 Receptor Antagonistic Activity
(9 μg) in the presence of AT1 membrane and test compound in 100 μL (total reaction volume) of reaction buffer (50 mM Tris (pH 7.4), 10 mM MgCl2 supplemented or not supplemented with 0.3 mg/mL fatty acid-free bovine serum albumin [manufactured by Wako Pure Chemical Industries, Ltd., Japan]). The reaction mixture was incubated in 96 well polypropylene plate for 1 hr at room temperature, and the reaction was quenched by rapid filtration (96 well cell harvester) through a GF/C filter treated with wash buffer (50 mM Tris (pH 7.4)). Subsequently, the filter was washed 5 times with 0.3 mL of ice-cooled wash buffer. […] Total binding was measured in the presence of 1% DMSO and nonspecific binding was measured in the presence of 1 μM Candesartan.
In the case of `CCCc1c(Cc2ccc(-c3ccccc3-c3noc(=O)[nH]3)cc2F)c(=O)n([C@H]2CC[C@H](OC(C)C(C)(C)O)CC2)c2ncnn12` (single isomer, unassigned) [Example 248, 6-{[3-fluoro-2′-(5-oxo-4,5-dihydro-1,2,4-oxadiazol-3-yl)biphenyl-4-yl]methyl}-4-[trans-4-(2-hydroxy-1,2-dimethylpropoxy)cyclohexyl]-7-propyl[1,2,4]triazolo[1,5-a]pyrimidin-5(4H)-one], the IC50 (commonly the concentration needed to halve the response being measured) was 2.2 nM. On the same count and under the same terms, with `CCCc1c(Cc2ccc(-c3ccccc3-c3noc(=O)[nH]3)cc2)c(=O)n(C2CCC(OCC(C)O)CC2)c2ccnn12` (single isomer, unassigned) [Example 441, 4-[trans-4-(2-hydroxypropoxy)cyclohexyl]-6-{[2′-(5-oxo-4,5-dihydro-1,2,4-oxadiazol-3-yl)biphenyl-4-yl]methyl}-7-propylpyrazolo[1,5-a]pyrimidin-5(4H)-one (Optically Active Form, Retention Time: Long)] the figure was 1.6 nM. `CCCc1c(Cc2ccc(-c3ccccc3-c3nc(=O)o[nH]3)cc2)c(=O)n(C2CCC(OCC(C)O)CC2)c2ccnn12` (single isomer, unassigned) [Example 440, 4-[trans-4-(2-hydroxypropoxy)cyclohexyl]-6-{[2′-(5-oxo-4,5-dihydro-1,2,4-oxadiazol-3-yl)biphenyl-4-yl]methyl}-7-propylpyrazolo[1,5-a]pyrimidin-5(4H)-one (Optically Active Form, Retention Time: Short)] came in with an IC50 of 1.8 nM.

A further test addresses human PPARγ (Homo sapiens (Human), UniProt P37231). Kind of test: PPARγ agonistic activity: luciferase reporter assay in PPARγ:RXRα:4ERPP/CHO-K1 cells. As to conditions: CHO-K1, test compound 10^−6 M; control compound X (1 μM) taken as 100%. In kind it is cell-based. From the text:
Evaluation of PPARγ Agonistic Activity
(5) Introduction of Human PPARγ- and RXRα-Expression Plasmid and Reporter Plasmid into Cho-K1 Cell as Well as Establishment of Expressed Cell
A CHO-K1 cell cultured in a 150 cm^2 cell culture flask [manufactured by Corning Costar Corporation, USA] comprising Ham's F12 medium [manufactured by INVITROGEN, USA] supplemented with 10% fetal bovine serum [manufactured by INVITROGEN, USA] was taken off by treating with 0.5 g/L trypsin-0.2 g/L EDTA (ethylenediamine tetraacetate) [manufactured by Life Technologies, Inc., USA], and then the cell was washed with PBS (Phosphate-buffered saline) [manufactured by INVITROGEN, USA], centrifuged (1000 rpm, 5 minutes) and suspended in PBS. Subsequently, DNA was introduced into the cell under the conditions shown below using GENE PULSER [manufactured by Bio-Rad Laboratories, USA].
Namely, to a cuvette having a 0.4 cm gap were added 8×10^6 cells and 10 μg of plasmid pVgRXR2-hPPARγ obtained in the above-mentioned (4) and 10 μg of reporter plasmid pGL3-4ERPP-TK neo obtained in the above-mentioned (3), which was subjected to electroporation at the voltage of 0.25 kV under the capacitance of 960 μF. Subsequently, the cell was transferred into a F12 medium comprising 10% fetal bovine serum and cultured for 24 hours, and then the cell was taken off again and centrifuged. Then, the pellet was suspended in Ham's F12 medium comprising 10% fetal bovine serum supplemented with 500 μg/ml of Geneticin [manufactured by INVITROGEN, USA] and 250 μg/ml of Zeocin [manufactured by INVITROGEN, USA]. The obtained suspension was diluted to the density of 10^4 cells/ml and inoculated in a 96-well plate [manufactured by Corning Costar Corporation, USA], which was cultured in a CO2 gas incubator at 37° C., whereby obtaining a Geneticin- and Zeocin-resistant transformant.
Subsequently, after the transformed cell line thus obtained was cultured in a 24-well plate [manufactured by Corning Costar Corporation, USA], a cell line in which expression of the luciferase was induced, i.e., PPARγ:RXRα:4ERPP/CHO-K1 cell was selected by the addition of 10 μM pioglitazone hydrochloride.
(6) Evaluation of PPARγ Agonistic Activity
PPARγ:RXRα:4ERPP/CHO-K1 cells obtained in the above-mentioned (5) were cultured in F12 medium [manufactured by INVITROGEN, USA] containing 10% fetal bovine serum [manufactured by MOREGATE, Australia], seeded in a 96 well half-area white plate [manufactured by Corning Coster Corporation, USA] at 5×10^3 cells/well, and cultured in a CO2 incubator at 37° C. overnight.
Then, the medium was removed from the 96 well half-area white plate, hamF12 medium containing 0.1% fatty acid-free bovine serum albumin (BSA) (45 μl) and a test compound (5 μl) were added, and the mixture was cultured in the CO2 incubator at 37° C. for 1 day. After removing the medium, Picagene 7.5 [manufactured by Dai Nippon Inki, Japan] (20 μl) diluted 2-fold with HBSS (HANKS' BALANCED SALT SOLUTION) [manufactured by BIO […], USA] was added, and the mixture was stirred. Using 1420 ARVO Multilabel Counter [manufactured by PerkinElmer, USA], luciferase activity was measured.
The percentage (%) was calculated from the luciferase activity of the test compound when the luciferase activity of the control compound (compound X: 5-[3-(4-{[2-(2-furyl)-5-methyl-1,3-oxazol-4-yl]methoxy}-3-methoxyphenyl)propyl]-1,3-oxazolidine-2,4-dione) (1 μM) was taken as 100% and the luciferase activity of the test compound non-administration group was taken as 0%.
A general note: A reporter such as luciferase makes a cellular process visible.
Consider `CCCc1c(Cc2ccc(-c3ccccc3-c3noc(=O)[nH]3)cc2F)c(=O)n([C@H]2CC[C@H](OC(C)C(C)(C)O)CC2)c2ncnn12` (single isomer, unassigned; (+)) [Example 247, (+)-6-{[3-fluoro-2′-(5-oxo-4,5-dihydro-1,2,4-oxadiazol-3-yl)biphenyl-4-yl]methyl}-4-[trans-4-(2-hydroxy-1,2-dimethylpropoxy)cyclohexyl]-7-propyl[1,2,4]triazolo[1,5-a]pyrimidin-5(4H)-one], for which the activation at 1 µM was determined as 17%. On to `CCCc1c(Cc2ccc(-c3ccccc3-c3noc(=O)[nH]3)cc2)c(=O)n([C@H]2CC[C@H](OC(C)C(C)(C)O)CC2)c2ncnn12` (single isomer, unassigned) [Example 318, 4-[trans-4-(2-hydroxy-1,2-dimethylpropoxy)cyclohexyl]-6-{[2′-(5-oxo-4,5-dihydro-1,2,4-oxadiazol-3-yl)biphenyl-4-yl]methyl}-7-propyl[1,2,4]triazolo[1,5-a]pyrimidin-5(4H)-one (Retention Time: Short)], for which the activation at 1 µM was 17%.

The test is the same for the next values; noted with them: test compound 10^−6 M; control compound X (1 μM) taken as 100%.
For the compound `CCCc1c(Cc2ccc(-c3ccccc3-c3noc(=O)[nH]3)cc2)c(=O)n([C@H]2CC[C@H](OC(C)C(C)(C)O)CC2)c2ncnn12` (stereo partly drawn) [Example 300, 4-[trans-4-(2-hydroxy-1,2-dimethylpropoxy)cyclohexyl]-6-{[2′-(5-oxo-4,5-dihydro-1,2,4-oxadiazol-3-yl)biphenyl-4-yl]methyl}-7-propyl[1,2,4]triazolo[1,5-a]pyrimidin-5(4H)-one], the “PPARγ agonistic activity (activation % (10^−6 M))” value came out at 16%.

Take `CCCc1c(Cc2ccc(-c3ccccc3-c3noc(=O)[nH]3)cc2F)c(=O)n([C@H]2CC[C@H](OC(C)C(C)(C)O)CC2)c2ncnn12` (single isomer, unassigned) [Example 248, 6-{[3-fluoro-2′-(5-oxo-4,5-dihydro-1,2,4-oxadiazol-3-yl)biphenyl-4-yl]methyl}-4-[trans-4-(2-hydroxy-1,2-dimethylpropoxy)cyclohexyl]-7-propyl[1,2,4]triazolo[1,5-a]pyrimidin-5(4H)-one]: the “PPARγ agonistic activity (activation % (10^−6 M))” value was determined as 19%. As to `CCCc1c(Cc2ccc(-c3ccccc3-c3noc(=O)[nH]3)cc2)c(=O)n(C2CCC(OCC(C)O)CC2)c2ccnn12` (single isomer, unassigned) [Example 441, 4-[trans-4-(2-hydroxypropoxy)cyclohexyl]-6-{[2′-(5-oxo-4,5-dihydro-1,2,4-oxadiazol-3-yl)biphenyl-4-yl]methyl}-7-propylpyrazolo[1,5-a]pyrimidin-5(4H)-one (Optically Active Form, Retention Time: Long)], the “PPARγ agonistic activity (activation % (10^−6 M))” value is given as 19%. Still for that read-out and setting: with `CCCc1c(Cc2ccc(-c3ccccc3-c3noc(=O)[nH]3)cc2)c(=O)n([C@H]2CC[C@H](OC(C)C(C)(C)O)CC2)c2ncnn12` (single isomer, unassigned) [Example 319, 4-[trans-4-(2-hydroxy-1,2-dimethylpropoxy)cyclohexyl]-6-{[2′-(5-oxo-4,5-dihydro-1,2,4-oxadiazol-3-yl)biphenyl-4-yl]methyl}-7-propyl[1,2,4]triazolo[1,5-a]pyrimidin-5(4H)-one (Retention Time: Long)] the figure was 16%. `CCCCc1c(Cc2ccc(-c3ccccc3-c3noc(=O)[nH]3)cc2)c(=O)n(C2CCOC(C)C2)c2ncnn12` (stereo not drawn) [Example 161, 7-butyl-4-(2-methyltetrahydro-2H-pyran-4-yl)-6-{[2′-(5-oxo-4,5-dihydro-1,2,4-oxadiazol-3-yl)biphenyl-4-yl]methyl}[1,2,4]triazolo[1,5-a]pyrimidin-5(4H)-one]: the “PPARγ agonistic activity (activation % (10^−6 M))” value is on record as 47%.

For the compound `CCCCc1c(Cc2ccc(-c3ccccc3-c3noc(=O)[nH]3)cc2)c(=O)n(C2CCOC(C)C2)c2ncnn12` (stereo not drawn) [Example 160, 7-butyl-4-(2-methyltetrahydro-2H-pyran-4-yl)-6-{[2′-(5-oxo-4,5-dihydro-1,2,4-oxadiazol-3-yl)biphenyl-4-yl]methyl}[1,2,4]triazolo[1,5-a]pyrimidin-5(4H)-one], the “PPARγ agonistic activity (activation % (10^−6 M))” value came out at 26%.

For the next test, the system named is Male SHRs. The test is described as follows: Antihypertensive effect: mean blood pressure in SHRs after oral administration. In kind it is in vivo, rat. As to conditions: SHR, dose 3 mg/kg, during 24 hours after administration. As to the method:
Male SHRs (28-40 weeks old, Japan SLC, Inc., Japan) were anesthetized with sodium pentobarbital (50 mg/kg, i.p.). The left femoral artery was cannulated with a polyethylene catheter filled with saline comprising heparin (200 U/mL). The catheter was exteriorized at the back of the neck and each SHR was individually housed in a cage and left two or four days to recover. The mean blood pressure (MBP) was obtained from the systemic blood pressure which was monitored from the femoral artery using a pressure transducer connected to a polygraph system (Nihon Kohden Corporation). The heart rate was measured from the blood pressure pulse intervals. The rats which had MBP over 150 mmHg were used for the experiment. When the blood pressure had stabilized, vehicle (0.5 w/v % methylcellulose) or compounds were orally administered. All compounds were suspended in 0.5 w/v % methylcellulose and orally administered at a volume of 2 mL/kg. The MBP was measured during 24 hours after the administration.
As for `CCCc1c(Cc2ccc(-c3ccccc3C3=NOC(O)N3)cc2F)c(=O)n(C2CCC(OC(C)C(C)(C)O)CC2)c2ncnn12.[K+]` (single isomer, unassigned; (-)) [Example 459, (−)-6-{[3-fluoro-2′-(5-oxo-4,5-dihydro-1,2,4-oxadiazol-3-yl)biphenyl-4-yl]methyl}-4-[trans-4-(2-hydroxy-1,2-dimethylpropoxy)cyclohexyl]-7-propyl[1,2,4]triazolo[1,5-a]pyrimidin-5(4H)-one potassium salt (Retention Time: Long)], the “Maximum MBP reduction (mmHg)” value is listed as 64 mmHg.
